Assays:
[1] = tested on: E. coli; assay: FLIM-phasors of E. coli exposed to ampicillin (preliminary data, FIG. 13); format: cell-based
Source text: The process of antibiotic susceptibility testing involves: isolation of bacteria from patient samples, immobilization of bacteria on agarose pads that contain different antibiotics supplied above the accepted minimum inhibitory concentration from the major classes commonly used in clinical settings including amoxicillin (penicillin-type), cephalexin (cephalosporin), erythromycin (macrolide), ciprofloxacin (fluoroquinolone), trimethoprim (sulfonamide), tetracycline, and gentamicin (aminoglycoside), imaging using the FLIM-AST device immediately and at 15-minute intervals for 2 hours to assess metabolic kinetics in response to antibiotics (FIG. 12).
The antibiotic susceptibility determination is performed by comparing FLIM-phasor profiles during the 2-hour incubation using software.
The FLIM microscope uses an 80 MHz ultrafast Ti:Sapphire Mai Tai laser (Spectra-physics, Santa Clara, Calif.) set at 740 nm for excitation. […] An H7422P-40 photomultiplier tube module (Hamamatsu, Bridgewater, N.J.) and A320 FastFLIM Box (ISS, Champaign, Ill.) were used to measure fluorescence lifetime. Image acquisition was controlled by SimFCS software (Laboratory for Fluorescence Dynamics, Irvine, Calif.).

[2] = tested on: surface-attached P. aeruginosa; assay: Image-based virulence (host killing) assay with amoeba host cells and calcein-AM; format: cell-based, Pseudomonas aeruginosa
Procedure: P. aeruginosa cells were assayed using an image-based virulence assay as described previously (12, 50). P. aeruginosa strains were cultured in PS:DB, diluted 1:100 into 60×15 mm plastic petri dishes (Corning, Corning, N.Y.), cultured for 4 to 6 hours by shaking at 100 rpm, and harvested. Planktonic cells were assayed by transferring 10 μL of culture from the petri dish to a new petri dish, mixing with an equal volume of D. discoideum that were grown to an OD600 of 0.2-0.5, and immobilizing by placing an agar pad on top of the mixture (FIG. 11C). Agar pads were made using Bacto agar at a concentration of 1%, DB buffer, and 1 μM calcein acetoxymethyl (AM) ester (Molecular Probes, Eugene, Oreg.), and were cut into 1.5×1.5 cm squares (12, 50). Surface-attached cells were assayed by aspirating planktonic cells from the culture, washing with DB buffer to remove planktonic cells, mixing with an equal volume of D. discoideum, and immobilizing by placing an agar pad on top of the mixture (FIG. 11C) (50). The immobilized planktonic or surface-attached P. aeruginosa and D. discoideum were incubated at room temperature for 1 hour and imaged using fluorescence microscopy. The host killing index (12, 50) was computed as the average ratio of calcein-AM fluorescence to cell area in individual amoeba cells for 30 to 200 cells in each experiment.
Fluorescence microscopy to assess calcein-AM fluorescence was performed using a Nikon Eclipse Ti-E microscope (Nikon, Melville, N.Y.) containing Nikon 10× Plan Fluor Ph1 (0.3 NA) and 20×S Plan Fluor Nikon (0.45 NA) objectives, a Sola light engine (Lumencor, Beaverton, Oreg.), an LED-DA/FI/TX filter set (Semrock, Rochester, N.Y.) containing a 409/493/596 dichroic and 474/27 nm and 525/45 nm filters for excitation and emission, respectively, and a Hamamatsu Orca Flash 4.0 V2 camera (Hamamatsu, Bridgewater, N.J.). Images were acquired using Nikon NIS-Elements and analyzed using custom built software written previously (12) in Matlab (Mathworks, Natick, Mass.).
For experiments in which strains cultured in PS:DB were supplemented with individual carbon sources (FIG. 5A-D), pyruvic acid, citric acid, […], glycerol, or glucose was added to cultures at a final concentration of 0.2% at 3 hours following a 1:100 dilution from an overnight culture. Cultures were harvested after 1 additional hour of growth for measurements of fluorescence lifetime and NADH and NAD^+ concentrations. For experiments in which surface-attached strains that were cultured in PS:DB media were treated with antimycin A (FIG. 5E-F), 10 μM antimycin A dissolved in 0.1% ethanol, 0.1% ethanol, alone, or 10 μM antimycin A dissolved in 0.1% ethanol and 0.2% citric acid were added after 3 hours of growth following a 1:100 dilution from an overnight culture. Host killing was measured after an additional 1 to 3 hours of growth (total of 4 to 6 hours of growth).

[3] = tested on: E. coli; assay: FLIM-AST (FAST) antibiotic susceptibility, g value and residual ratio (RR); format: cell-based; conditions: tetracycline-sensitive vs tetracycline-resistant strain, 1 hour
Source text: We performed FLIM measurements using our FLIM AST (FAST) device of antibiotic-sensitive and antibiotic-resistant E. coli lab strains MG1655 and MC4100, P. aeruginosa strain PA14, and S. aureus strain RN4220 using a broad range of commonly-used antibiotics including tetracycline, ampicillin, carbenicillin, chloramphenicol, spectinomycin, gentamycin, and kanamycin and using a range of concentrations for each drug. For each antibiotic and strain combination, the minimum inhibitory concentration for each antibiotic was determined through measurements of optical densities of cultures. We treated bacterial strains using a range of concentrations starting from below-MIC to above-MIC concentrations for 1 hour.
We computed g values using the FLIM phasor method. Consistent with our predictions, we observed a significant change in g value following treatment by many antibiotics.
To determine a quantitative assessment of resistance, we computed a metric for the degree of antibiotic susceptibility for a given bacterial strain. Our experiments determined that the residual ratio (RR) number was a good indicator of antibiotic resistance:
where the g value is obtained using the phasor method to fluorescence lifetime imaging microscopy (FLIM) and t0 and t1 are the measurement times at the beginning of the measurement or at the end of the experiment, respectively. […]

[4] = tested on: P. aeruginosa; assay: Fluorescence lifetime imaging microscopy (FLIM) phasor g-values of P. aeruginosa; format: cell-based, Pseudomonas aeruginosa; conditions: planktonic wild-type, 0.2% citrate as sole carbon source, 10 μM antimycin A in 0.1% ethanol vs 0.1% ethanol
Procedure: Fluorescence lifetime measurements were performed using a custom-built multiphoton microscope setup based on an Olympus FV1000 system and an Olympus IX81 microscope (Olympus, Waltham, Mass.) as described previously (68). The FLIM microscope uses an 80 MHz ultrafast Ti:Sapphire Mai Tai laser (Spectra-physics, Santa Clara, Calif.) set at 740 nm for mulitphoton excitation. The setup used a 690-nm SP dichroic-460/80 nm filter pair for separating emission and a PlanApo N Olympus oil immersion 60× (1.42 NA) objective (Olympus, Waltham, Mass.), which is capable of bacterial single-cell resolution imaging. An H7422P-40 photomultiplier tube module (Hamamatsu, Bridgewater, N.J.) and A320 FastFLIM Box (ISS, Champaign, Ill.) were used to measure fluorescence lifetime. Image acquisition was controlled by SimFCS software version 4 (64-bit) (Laboratory for Fluorescence Dynamics, Irvine, Calif.). Planktonic and surface-attached cells were isolated by modifying a protocol described previously (12, 50) (FIG. 11A).
Masks for bacterial cells were created through SimFCS using fluorescence intensity images and image intensity thresholding (FIG. 11B). Fluorescence lifetimes within the masked areas were transformed using
The microscope was calibrated before each session by setting the fluorescence lifetime obtained for 10 μM rhodamine 110 (Sigma, St. Louis, Mo.) to 4.0 ns. The laser power was set to 20% (<3 mW at back aperture of the microscope) using an acousto-optic modulator (AA Opto Electronic, Orsay, France). Sub-cellular fluorescence lifetimes (FIG. 1A) were collected using the 20× digital zoom mode at a rate of 1.7 sec/frame. All other P. aeruginosa measurements were performed using the 6× digital zoom mode using the same frame rate. For all measurements, 40 sequential frames were acquired to generate a single FLIM image.
P. aeruginosa strains were cultured overnight in PS:DB, diluted 1:100 into 35 mm glass-bottom dishes (MatTek Corporation, Ashland, Mass.) containing the same medium, and cultured for 4 to 6 hours (FIGS. 2E-F, 4A, 5A, and 8C). Alternatively, strains were cultured overnight in minimal medium A, diluted 1:100 into modified minimal media A with single carbon sources in culture tubes (FIGS. 6D-E and 7A-B, D) or glass-bottom dishes and cultured to an OD600 of 0.2 (FIG. 2E-F).
Planktonic cells were transferred to a new glass-bottom dish, immobilized using an agar pad, and imaged immediately (FIG. 11A). Agar pads were made using 1% Bacto agar (BD, Franklin Lakes, N.J.) and DB buffer (1, 2) or modified minimal medium A containing no carbon source for strains that were cultured in PS:DB or modified minimal medium, respectively, and were cut into 1.5×1.5 cm squares. Surface-attached cells were isolated by aspirating the supernatant from the dish, washing the dish to remove planktonic cells with DB buffer or modified minimal medium with no carbon source for strains cultured in PS:DB or modified minimal medium, respectively, and placing an agar pad on the dish surface, and were imaged immediately. Imaging was performed at room temperature.
For experiments involving FLIM measurements of the effects of antimycin A (FIG. 7D), P. aeruginosa were grown in culture tubes to saturation in modified minimal medium A containing 0.2% citrate, diluted 1:100 into the same medium in culture tubes, supplemented with 10 μM antimycin A (Sigma, St. Louis, Mo.) with 0.1% ethanol or with 0.1% ethanol, cultured to an OD600 of 0.2, and immediately measured for fluorescence lifetime. Fluorescence lifetimes for pyocyanin and pyoverdine (FIG. 7C) were measured using solutions of 6.2 mM pyocyanin (P0046, Sigma, St. Louis, Mo.) in DMSO and 5 mg/mL pyoverdine (P8124, Sigma, St. Louis, Mo.) in deionized water, respectively. For FIG. 6D, cells with fluorescence intensities below a value of 1.0, as reported by the SimFCS software, were excluded from the analysis. […]

Compound: CC1(C)S[C@@H]2[C@H](NC(=O)[C@H](N)c3ccccc3)C(=O)N2[C@H]1C(=O)O [ampicillin]
- average values along the g-axis ([1]; E. coli exposed to ampicillin): vary with concentration
- phasor profile after drug is removed ([1]; E. coli, after ampicillin is removed): recovers to smaller values of g

Compound: O=P(O)(O)O [phosphoric acid, reference compound]
- host-killing activity (host killing index) ([2]; surface-attached wild-type P. aeruginosa in rich (PS:DB) medium, supplemented at 3 hours at 0.2%, assessed after 6 hours of growth, amoeba host cells): little impact on host-killing activity

Compound: CN(C)[C@@H]1C(O)=C(C(N)=O)C(=O)[C@@]2(O)C(O)=C3C(=O)c4c(O)cccc4[C@@](C)(O)[C@H]3C[C@@H]12 [tetracycline]
- concentration at which the increase in RR value begins [3]: 50 µg/mL

Compound: antimycin A [reference compound]
- virulence induced earlier than untreated cells ([2]; surface-attached P. aeruginosa, 10 μM antimycin A in 0.1% ethanol added at 3 hours, host killing at 4.5 to 6 hours): 30 min
- shift in fluorescence lifetime g-value [4]: shift towards higher g-value

— patent US20220287995A1, “COMPOSITIONS AND METHODS FOR INHIBITING BACTERIAL VIRULENCE AND FLIM-BASED DEVICE AND METHOD FOR ANTIBIOTIC SUSCEPTIBILITY TESTING” (THE REGENTS OF THE UNIVERSITY OF CALIFORNIA, priority 2019, published 2022)
